# Measurements reported in patent US8242118B2, “Arylsulfonamide derivatives for use as CCR3 antagonists in the treatment of inflammatory and immunological disorders” (Axikin Pharmaceuticals Inc., priority 2001, dated 2012).
# Target: T1, Human CCR3 (Homo sapiens, UniProt P51677)
# T1 construct: The cloned CCR3 cDNA was constructed with pcDNA3 vector and transfected into a IC562 cell line; expressed in transfected cells
# T1 sequence (P51677 1-355): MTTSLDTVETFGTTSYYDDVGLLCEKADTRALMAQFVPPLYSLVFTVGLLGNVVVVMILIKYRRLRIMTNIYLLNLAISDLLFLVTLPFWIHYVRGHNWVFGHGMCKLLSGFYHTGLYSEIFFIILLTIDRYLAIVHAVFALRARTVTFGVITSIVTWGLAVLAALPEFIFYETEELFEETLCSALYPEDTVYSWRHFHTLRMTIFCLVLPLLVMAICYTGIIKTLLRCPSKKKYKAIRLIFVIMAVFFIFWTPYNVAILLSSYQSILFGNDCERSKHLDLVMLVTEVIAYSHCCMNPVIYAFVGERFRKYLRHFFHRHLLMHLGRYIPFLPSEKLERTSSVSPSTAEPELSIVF
# Assay: Receptor binding assay (RBA), [125I]-eotaxin
# Details: human CCR3-transformed K562 cells, 0.1 nM [125I]-eotaxin; compounds of about 40 to 90% purity; read-out: Activity grade RBA (IC50 class)
# Method in brief: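 Butyrate-pretreated (5 mM, 20-24 h) CCR3-transfected K562 cells incubated 1 h at room temperature with compound and 0.1 nM final [125I]-eotaxin in HEPES pH 7.6 buffer; bound radioactivity counted after filtration. Non-specific binding with 500 nM unlabeled eotaxin; IC50 from inhibition curve.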
row,SMILES,IC50 [nM]
1,O=[N+]([O-])c1ccc(Sc2cc(Cl)cc(Cl)c2)c(S(=O)(=O)N2CCC(N3CCCCC3)CC2)c1 [Example 2-3],< 1000
2,Cl.N[C@@H]1CCN(S(=O)(=O)c2cc([N+](=O)[O-])ccc2Sc2cc(Cl)cc(Cl)c2)C1 [Example 2-11],< 1000
3,N[C@H]1CCN(S(=O)(=O)c2cc([N+](=O)[O-])ccc2Sc2cc(Cl)cc(Cl)c2)C1 [Example 2-12],< 1000
4,CC1CCCCN1CCCNS(=O)(=O)c1cc([N+](=O)[O-])ccc1Sc1cc(Cl)cc(Cl)c1 (stereo not shown) [Example 2-13],< 1000
5,O=[N+]([O-])c1ccc(Sc2cc(Cl)cc(Cl)c2)c(S(=O)(=O)N2CCC(N3CCCC3)CC2)c1 [Example 2-22],< 1000
6,CN(C)CCN(C)S(=O)(=O)c1cc([N+](=O)[O-])ccc1Sc1cc(Cl)cc(Cl)c1 [Example 2-23],< 1000
7,O=[N+]([O-])c1ccc(Sc2cc(Cl)cc(Cl)c2)c(S(=O)(=O)NCCN2CCCCC2)c1 [Example 2-24],< 1000
8,O=[N+]([O-])c1ccc(Nc2cc(Cl)cc(Cl)c2)c(S(=O)(=O)N2CCNCC2)c1 [Example 3-2],< 1000
9,Cc1ccccc1Nc1ccc([N+](=O)[O-])cc1S(=O)(=O)N1CCNCC1 [Example 3-3],1000 to 10000
10,Cc1cccc(Nc2ccc([N+](=O)[O-])cc2S(=O)(=O)N2CCNCC2)c1 [Example 3-4],1000 to 10000
11,Cc1ccc(Nc2ccc([N+](=O)[O-])cc2S(=O)(=O)N2CCNCC2)cc1 [Example 3-5],> 10000
12,O=[N+]([O-])c1ccc(Nc2ccccc2Cl)c(S(=O)(=O)N2CCNCC2)c1 [Example 3-6],> 10000
13,Cc1cc(C)cc(Oc2ccc([N+](=O)[O-])cc2S(=O)(=O)NCCN2CCCCC2)c1 [Example 4-2],< 1000
14,Cc1cc(C)cc(Oc2ccc([N+](=O)[O-])cc2S(=O)(=O)NCCN2CCOCC2)c1 [Example 4-3],1000 to 10000
15,Cc1cc(C)cc(Oc2ccc([N+](=O)[O-])cc2S(=O)(=O)N2CCN(C)CC2)c1 [Example 4-4],< 1000
16,CCN1CCN(S(=O)(=O)c2cc([N+](=O)[O-])ccc2Oc2cc(C)cc(C)c2)CC1 [Example 4-5],< 1000
17,Cc1cc(C)cc(Oc2ccc([N+](=O)[O-])cc2S(=O)(=O)N2CCN(C3CCCCC3)CC2)c1 [Example 4-6],< 1000
18,Cc1cc(C)cc(Oc2ccc([N+](=O)[O-])cc2S(=O)(=O)N2CCN(c3ccccc3)CC2)c1 [Example 4-7],> 10000
19,Cc1ccc(N2CCN(S(=O)(=O)c3cc([N+](=O)[O-])ccc3Oc3cc(C)cc(C)c3)CC2)cc1 [Example 4-8],> 10000
20,CCN1CCC(N(CC)S(=O)(=O)c2cc([N+](=O)[O-])ccc2Oc2cc(C)cc(C)c2)C1 (stereo not shown) [Example 4-12],< 1000

row,SMILES,IC50 [nM]
1,Cc1cc(C)cc(Oc2ccc([N+](=O)[O-])cc2S(=O)(=O)N2CC[C@@H](N(C)C)C2)c1 [Example 4-13],< 1000
2,Cc1cc(C)cc(Oc2ccc([N+](=O)[O-])cc2S(=O)(=O)N(C)CCN(C)C)c1 [Example 4-14],< 1000
3,Cc1cc(C)cc(Oc2ccc([N+](=O)[O-])cc2S(=O)(=O)N2CCN(C(C)C)CC2)c1 [Example 4-15],< 1000
4,CCC(C)N1CCN(S(=O)(=O)c2cc([N+](=O)[O-])ccc2Oc2cc(C)cc(C)c2)CC1 (stereo not shown) [Example 4-16],< 1000
5,CCCC(C)N1CCN(S(=O)(=O)c2cc([N+](=O)[O-])ccc2Oc2cc(C)cc(C)c2)CC1 (stereo not shown) [Example 4-17],< 1000
6,CCC(CC)N1CCN(S(=O)(=O)c2cc([N+](=O)[O-])ccc2Oc2cc(C)cc(C)c2)CC1 [Example 4-18],< 1000
7,Cc1cc(C)cc(Oc2ccc([N+](=O)[O-])cc2S(=O)(=O)N2CCN(C3CCCC3)CC2)c1 [Example 4-19],< 1000
8,CN(C)CCN(C)S(=O)(=O)c1cc([N+](=O)[O-])ccc1Oc1cc(Cl)cc(Cl)c1 [Example 4-20],< 1000
9,CCN(CC)C1CCN(S(=O)(=O)c2cc([N+](=O)[O-])ccc2Oc2cc(Cl)cc(Cl)c2)C1 (stereo not shown) [Example 4-21],< 1000
10,O=[N+]([O-])c1ccc(Oc2cc(Cl)cc(Cl)c2)c(S(=O)(=O)N2CCC[C@H]2CN2CCCC2)c1 [Example 4-22],< 1000
11,CN1CCC(N(C)S(=O)(=O)c2cc([N+](=O)[O-])ccc2Oc2cc(Cl)cc(Cl)c2)C1 (stereo not shown) [Example 4-23],< 1000
12,Cc1cc(C)cc(Oc2ccc([N+](=O)[O-])cc2S(=O)(=O)N2CCC(N(C)C)CC2)c1.Cl [Example 4-24],< 1000
13,Cc1cc(C)cc(Oc2ccc([N+](=O)[O-])cc2S(=O)(=O)N2CCN(CC3CCCO3)CC2)c1 (stereo not shown) [Example 4-26],< 1000
14,O=[N+]([O-])c1ccc(Oc2cc(Cl)cc(Cl)c2)c(S(=O)(=O)N2CCN(CC3CCCO3)CC2)c1 (stereo not shown) [Example 4-27],< 1000
15,O=[N+]([O-])c1ccc(Oc2cc(Cl)cc(Cl)c2)c(S(=O)(=O)N2CCC(N3CCCCC3)CC2)c1 [Example 4-29],< 1000
16,Cc1cc(C)cc(Oc2ccc([N+](=O)[O-])cc2S(=O)(=O)N2CCN(CCC(F)(F)F)CC2)c1 [Example 4-33],< 1000
17,O=[N+]([O-])c1ccc(Oc2cc(Cl)cc(Cl)c2)c(S(=O)(=O)N2CCN(CCC(F)(F)F)CC2)c1 [Example 4-34],< 1000
18,COCCCN1CCN(S(=O)(=O)c2cc([N+](=O)[O-])ccc2Oc2cc(Cl)cc(Cl)c2)CC1 [Example 4-36],< 1000
19,O=[N+]([O-])c1ccc(Oc2cc(Cl)cc(Cl)c2)c(S(=O)(=O)N2CCC(N3CCCC3)C2)c1 (stereo not shown) [Example 4-38],< 1000

# Other lines, results leading:
row,IC50 [nM],SMILES
1,> 10000,Cc1cc(C)cc(Oc2ccc(N)cc2S(=O)(=O)N2CCNCC2)c1.O=C(O)C(F)(F)F [Example 5-3]
2,< 1000,CCN1CCN(S(=O)(=O)c2cc(Cl)ccc2Oc2cc(C)cc(C)c2)CC1 [Example 5-4]
3,< 1000,CCN1CCN(S(=O)(=O)c2cc(I)ccc2Oc2cc(C)cc(C)c2)CC1 [Example 5-5]
4,< 1000,Cc1cc(C)cc(Oc2ccc(I)cc2S(=O)(=O)N2CCNCC2)c1.Cl [Example 5-6]
5,> 10000,Cc1cc(C)cc(Oc2cc(C)c(N)cc2S(=O)(=O)N2CCNCC2)c1.Cl.Cl [Example 5-7]
6,< 1000,Cc1cc(C)cc(Oc2ccc(F)cc2S(=O)(=O)N2CCNCC2)c1 [Example 6-3]
7,> 10000,CC(=O)Nc1ccc(Oc2cc(C)cc(C)c2)c(S(=O)(=O)N2CCNCC2)c1 [Example 7-2]
8,> 10000,Cc1cc(C)cc(Oc2ccc(NC(=O)C(C)(C)C)cc2S(=O)(=O)N2CCNCC2)c1 [Example 7-3]
9,> 10000,Cc1cc(C)cc(Oc2ccc(NC(=O)CC(C)C)cc2S(=O)(=O)N2CCNCC2)c1 [Example 7-4]
10,> 10000,Cc1cc(C)cc(Oc2ccc(NC(=O)c3ccccc3)cc2S(=O)(=O)N2CCNCC2)c1 [Example 7-5]
11,> 10000,Cc1ccc(C(=O)Nc2ccc(Oc3cc(C)cc(C)c3)c(S(=O)(=O)N3CCNCC3)c2)cc1 [Example 7-6]
12,> 10000,Cc1cc(C)cc(Oc2ccc(NC(=O)c3cccc4ccccc34)cc2S(=O)(=O)N2CCNCC2)c1 [Example 7-7]
13,> 10000,Cc1cc(C)cc(Oc2ccc(NC(=O)CCc3ccccc3)cc2S(=O)(=O)N2CCNCC2)c1 [Example 7-8]
14,> 10000,Cc1cc(C)cc(Oc2ccc(NC(=O)c3cccs3)cc2S(=O)(=O)N2CCNCC2)c1 [Example 7-9]
15,1000 to 10000,Cc1cc(C)cc(Oc2ccc(S(=O)(=O)N(C)C)cc2S(=O)(=O)N2CCNCC2)c1.Cl [Example 10-2]
16,1000 to 10000,N#Cc1ccc(Oc2cc(Cl)cc(Cl)c2)c(S(=O)(=O)N2CCCC3CN(Cc4ccccc4)CC32)c1 (stereo not shown) [Example 13-2]
17,< 1000,N#Cc1ccc(Oc2cc(Cl)cc(Cl)c2)c(S(=O)(=O)N2C[C@H]3C[C@@H]2CN3)c1 [Example 13-4]
18,1000 to 10000,N#Cc1ccc(Oc2cc(Cl)cc(Cl)c2)c(S(=O)(=O)N2C[C@@H]3CCCN[C@@H]3C2)c1 [Example 13-5]
19,< 1000,COCCCN1CCN(S(=O)(=O)c2cc(C#N)ccc2Oc2cc(Cl)cc(Cl)c2)CC1 [Example 13-7]
